Measured values taken from patent US11470844B2, “Vespidae wasp repellent” (KINP CO., LTD, priority 2015, dated 2022).

Assays:
Format in all cases: in vivo
Vespa mandarinia worker = assay: Black ball nest disturbance, Experiment 1 (ball with adsorbed alarm pheromone); settings: for total number of workers alighting on the black ball for attack: alarm pheromone adsorbed ball
Experimental: The experiment was conducted with utilizing a nest of Vespa mandarinia found in Kagawa Prefecture Kinbuchi Forest Park in Takamatsu City Kagawa Prefecture on Oct. 24, 2014. Since the nest was built in the ground, the nest could not be found except for the entrance thereof.
A vinyl ball of which diameter was 13 cm and which was coated with black lacquer was hung on the tip of a fishing rod having a length of 11 m. Hereinafter, the ball was abbreviated as “black ball”. After distilled water was sprayed on the entire surface, the vicinity of the nest entrance was disturbed by using the black ball. Specifically, the nest was disturbed by vibrating the black ball about 50 cm before the nest entrance in the air for about 10 seconds or vibrating the black ball in contact with the nest entrance for about 10 seconds. After the black ball was vibrated in the above-described conditions for about 10 seconds, the black ball was moved to the air of about 1 m before the nest entrance, and the behavior of the Vespa mandarinia worker against the black ball was shot and recorded for 2 minutes with a video camera. In the above condition, both of the black balls used in both conditions were attacked by the Vespa mandarinia workers and it is considered that the alarm pheromone was adsorbed on the black balls. Then, the black ball was kept away from the nest so that all the Vespa mandarinia workers were separated, 2-phenylethanol was sprayed on the entire surface, and the behavior of the workers against the black ball was similarly observed. The total number of workers alighting on the surface of the hemispherical side observable by the video image for attack during the vibration of the black ball was counted.

Vespa analis = assay: Grape juice attraction trap set outside
Experimental: (§1) The inventors conducted the experiment at four places in Kagawa Prefecture Kinbuchi Forest Park. The experiment was conducted totally 4 times from Oct. 11 to Nov. 4, 2013, from Nov. 4 to Dec. 7, 2013, from Oct. 1 to Oct. 31, 2014, and from Oct. 31 to Dec. 9, 2014.
(§2) First, four 2 cm square holes were opened on the side of a 2 L capacity PET bottle, and 500 mL of grape juice was added thereto to prepare a control attraction trap to kill a Vespidae worker. As Test liquid example, 25 mL, 5 mL or 1 mL of 2-phenylethanol was added to the grape juice of the traps. […] Since all of the test sites were low mountainous and sloping areas and had many trees, each trap had to be suspended from the branch of live trees. As a result, the horizontal distances between a pair of control example trap and test liquid example trap could not be adjusted to the same, and the distance was from 1 m to 8.5 m. There were not only Vespidae worker but also male Vespidae among the killed Vespidae wasps in the attraction traps; however, the results of the control example and test liquid example were compared on the basis of the number of the killed Vespidae worker, since a Vespidae worker causes a stabbing accident and plays an important role in building a nest. In Table 8, “*” indicates the case where there is a significant difference at p<0.01 in the χ^2 test to which the correction of Yates is applied, and “**” indicates the case where there is a significant difference at p<0.001 in the same test. The result of the first experiment in 2013 is shown in Table 9, the result of the second experiment in 2013 is shown in Table 10, the result of the first experiment using 1% 2-phenylethanol in 2014 is shown in Table 11, the result of the second experiment in 2014 is shown in Table 12, the result of the first experiment using 0.1% 2-phenylethanol in 2014 is shown in Table 13, and the result of the second experiment in 2014 is shown in Table 14. In Tables 9 to 14, “*” indicates the case where there is a significant difference at p<0.05 in the t-test, “**” indicates the case where there is a significant difference at p<0.01 in the same test, and “***” indicates the case where there is a significant difference at p<0.001 in the same test.
(§3) In the first experiment and second experiment, the trap prepared by adding 25 mL of 2-phenylethanol to 500 mL of grape juice was used as the test liquid example of 5% 2-phenylethanol.
(§4) In the first experiment and second experiment, 10 traps prepared by adding 5 mL of 2-phenylethanol to 500 mL of grape juice and 10 traps prepared by adding 0.5 mL of 2-phenylethanol to 500 mL of grape juice were used respectively as the 2 kinds of test liquid examples of 1% 2-phenylethanol and 0.1% 2-phenylethanol to conduct the experiment.

Vespa ducalis = assay: Grape juice attraction trap set outside
Experimental: as §1, §2, §3, §4

Vespa mandarinia = assay: Grape juice attraction trap set outside
Experimental: as §1, §2, §3, §4

[1] = tested on: Vespa simillima xanthoptera; assay: Grape juice attraction trap set outside
Experimental: as §1, §2, §3, §4

[2] = tested on: Vespidae worker, all species; assay: Grape juice attraction trap set outside
Experimental: as §1, §2, §3, §4

[3] = 0.1% 2-phenylethanol trap, first experiment 2014, 10 traps
[4] = 0.1% 2-phenylethanol trap, second experiment 2014, 10 traps
[5] = 1% 2-phenylethanol trap, first experiment 2014, 10 traps
[6] = 1% 2-phenylethanol trap, second experiment 2014, 10 traps
[7] = 5% 2-phenylethanol trap, first experiment 2013, 18 traps
[8] = 5% 2-phenylethanol trap, second experiment 2013, 18 traps

Q: What does the source list for OCCc1ccccc1 [2-Phenylethanol, 2-phenylethanol]?
A: total number of workers alighting on the black ball for attack (Vespa mandarinia worker; Vibration in contact with nest entrance): 0; total number of workers alighting on the black ball for attack (Vespa mandarinia worker; Vibration in the air before nest entrance): 0; distance from the surface of the black ball at which workers changed direction and flew away (Vespa mandarinia worker; in vivo): about 10 cm; Total number of killed worker (Average ± SD), Vespa analis (Vespa analis; [3]): (0.60 ± 0.70); Total number of killed worker, Vespa analis (Vespa analis; [3]): 6; Total number of killed worker (Average ± SD), Vespa analis (Vespa analis; [4]): (0.00 ± 0.00); Total number of killed worker, Vespa analis (Vespa analis; [4]): 0; Total number of killed worker (Average ± SD), Vespa analis (Vespa analis; [5]): (0.00 ± 0.00); Total number of killed worker, Vespa analis (Vespa analis; [5]): 0; Total number of killed worker (Average ± SD), Vespa analis (Vespa analis; [6]): (0.00 ± 0.00); Total number of killed worker, Vespa analis (Vespa analis; [6]): 0; Total number of killed worker (Average ± SD), Vespa analis (Vespa analis; [7]): (0.00 ± 0.00); Total number of killed worker, Vespa analis (Vespa analis; [7]): 0; Total number of killed worker (Average ± SD), Vespa analis (Vespa analis; [8]): (0.00 ± 0.00); Total number of killed worker, Vespa analis (Vespa analis; [8]): 0; Total number of killed worker (Average ± SD), Vespa ducalis (Vespa ducalis; [3]): (0.40 ± 0.70); Total number of killed worker, Vespa ducalis (Vespa ducalis; [3]): 4; Total number of killed worker (Average ± SD), Vespa ducalis (Vespa ducalis; [4]): (0.00 ± 0.00); Total number of killed worker, Vespa ducalis (Vespa ducalis; [4]): 0; Total number of killed worker (Average ± SD), Vespa ducalis (Vespa ducalis; [5]): (0.00 ± 0.00); Total number of killed worker, Vespa ducalis (Vespa ducalis; [5]): 0; Total number of killed worker (Average ± SD), Vespa ducalis (Vespa ducalis; [6]): (0.00 ± 0.00); Total number of killed worker, Vespa ducalis (Vespa ducalis; [6]): 0; Total number of killed worker (Average ± SD), Vespa ducalis (Vespa ducalis; [7]): (0.00 ± 0.00); Total number of killed worker, Vespa ducalis (Vespa ducalis; [7]): 0; Total number of killed worker (Average ± SD), Vespa ducalis (Vespa ducalis; [8]): (0.00 ± 0.00); Total number of killed worker, Vespa ducalis (Vespa ducalis; [8]): 0; Total number of killed worker (Average ± SD), Vespa mandarinia (Vespa mandarinia; [3]): (3.60 ± 5.58); Total number of killed worker, Vespa mandarinia (Vespa mandarinia; [3]): 36; Total number of killed worker (Average ± SD), Vespa mandarinia (Vespa mandarinia; [4]): (0.30 ± 0.95); Total number of killed worker, Vespa mandarinia (Vespa mandarinia; [4]): 3; Total number of killed worker (Average ± SD), Vespa mandarinia (Vespa mandarinia; [5]): (0.00 ± 0.00); Total number of killed worker, Vespa mandarinia (Vespa mandarinia; [5]): 0; Total number of killed worker (Average ± SD), Vespa mandarinia (Vespa mandarinia; [6]): (0.00 ± 0.00); Total number of killed worker, Vespa mandarinia (Vespa mandarinia; [6]): 0; Total number of killed worker (Average ± SD), Vespa mandarinia (Vespa mandarinia; [7]): (0.00 ± 0.00); Total number of killed worker, Vespa mandarinia (Vespa mandarinia; [7]): 0; Total number of killed worker (Average ± SD), Vespa mandarinia (Vespa mandarinia; [8]): (0.00 ± 0.00); Total number of killed worker, Vespa mandarinia (Vespa mandarinia; [8]): 0; Total number of killed worker (Average ± SD), Vespa simillima xanthoptera [1, 3]: (0.10 ± 0.32); Total number of killed worker, Vespa simillima xanthoptera [1, 3]: 1; Total number of killed worker (Average ± SD), Vespa simillima xanthoptera [1, 4]: (0.00 ± 0.00); Total number of killed worker, Vespa simillima xanthoptera [1, 4]: 0; Total number of killed worker (Average ± SD), Vespa simillima xanthoptera [1, 5]: (0.00 ± 0.00); Total number of killed worker, Vespa simillima xanthoptera [1, 5]: 0; Total number of killed worker (Average ± SD), Vespa simillima xanthoptera [1, 6]: (0.00 ± 0.00); Total number of killed worker, Vespa simillima xanthoptera [1, 6]: 0; Total number of killed worker (Average ± SD), Vespa simillima xanthoptera [1, 7]: (0.00 ± 0.00); Total number of killed worker, Vespa simillima xanthoptera [1, 7]: 0; Total number of killed worker (Average ± SD), Vespa simillima xanthoptera [1, 8]: (0.00 ± 0.00); Total number of killed worker, Vespa simillima xanthoptera [1, 8]: 0; Number of effective trap ([2]; 0.1% 2-phenylethanol in grape juice, 2014, 1st experiment, 10 installed traps): 10; Number of effective trap ([2]; 0.1% 2-phenylethanol in grape juice, 2014, 2nd experiment, 10 installed traps): 1; Total number of killed worker (Average ± SD), All species [2, 3]: (6.20 ± 6.27); Total number of killed worker, All species [2, 3]: 62; Total number of killed worker (Average ± SD), All species [2, 4]: (0.30 ± 0.95); Total number of killed worker, All species [2, 4]: 3; Number of effective trap ([2]; 1% 2-phenylethanol in grape juice, 2014, 1st experiment, 10 installed traps): 0; Number of effective trap ([2]; 1% 2-phenylethanol in grape juice, 2014, 2nd experiment, 10 installed traps): 0; Total number of killed worker (Average ± SD), All species [2, 5]: (0.00 ± 0.00); Total number of killed worker, All species [2, 5]: 0; Total number of killed worker (Average ± SD), All species [2, 6]: (0.00 ± 0.00); Total number of killed worker, All species [2, 6]: 0; Number of effective trap ([2]; 5% 2-phenylethanol in grape juice, 2013, 1st experiment, 18 installed traps): 0; Number of effective trap ([2]; 5% 2-phenylethanol in grape juice, 2013, 2nd experiment, 18 installed traps): 0; Total number of killed worker (Average ± SD), All species [2, 7]: (0.00 ± 0.00); Total number of killed worker, All species [2, 7]: 0; Total number of killed worker (Average ± SD), All species [2, 8]: (0.00 ± 0.00); Total number of killed worker, All species [2, 8]: 0; time for which 2-phenylethanol contained in grape juice maintained its effect ([2]; 5% and 1% 2-phenylethanol traps): at least about one month
